The source of these data is patent US20210070748A1, “INHIBITORS OF BRUTONS TYROSINE KINASE” (Pharmacyclics LLC, priority 2015, published 2021).

Common to all, as to assay type: biochemical
In one assay the target is T1, TEC (Homo sapiens, UniProt P42680).
T1 sequence (P42680 1-631): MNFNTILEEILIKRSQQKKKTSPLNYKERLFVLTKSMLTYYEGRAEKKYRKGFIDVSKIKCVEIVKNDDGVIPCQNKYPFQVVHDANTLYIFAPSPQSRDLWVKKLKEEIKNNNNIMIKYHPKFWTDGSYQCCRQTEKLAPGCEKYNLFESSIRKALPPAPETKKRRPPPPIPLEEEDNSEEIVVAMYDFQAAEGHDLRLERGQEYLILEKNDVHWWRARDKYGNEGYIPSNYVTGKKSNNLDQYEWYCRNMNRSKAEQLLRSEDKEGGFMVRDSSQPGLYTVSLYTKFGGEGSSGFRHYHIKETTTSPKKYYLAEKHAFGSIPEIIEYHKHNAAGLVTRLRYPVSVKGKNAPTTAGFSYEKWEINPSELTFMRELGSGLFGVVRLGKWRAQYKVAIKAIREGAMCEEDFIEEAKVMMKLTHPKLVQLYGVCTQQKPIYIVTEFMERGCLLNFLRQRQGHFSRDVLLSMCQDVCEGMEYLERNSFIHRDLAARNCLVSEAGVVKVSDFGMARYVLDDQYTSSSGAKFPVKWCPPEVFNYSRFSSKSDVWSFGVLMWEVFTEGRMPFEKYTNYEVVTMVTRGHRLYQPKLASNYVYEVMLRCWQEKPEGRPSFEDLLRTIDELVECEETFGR
Nature of the assay: Inhibition of a panel of kinases, in vitro HotSpot kinase assay: TEC. Particulars: Table 15, C compounds; 1 μM ATP. How it is done: (§1) The degree of inhibition of a panel of kinases is determined using the in vitro HotSpot kinase assay (purified enzymes, ^33P-ATP, an appropriate substrate and 1 μM ATP).

For another assay, the target named is T2, ITK (Homo sapiens, UniProt Q08881).
T2 sequence (Q08881 1-620): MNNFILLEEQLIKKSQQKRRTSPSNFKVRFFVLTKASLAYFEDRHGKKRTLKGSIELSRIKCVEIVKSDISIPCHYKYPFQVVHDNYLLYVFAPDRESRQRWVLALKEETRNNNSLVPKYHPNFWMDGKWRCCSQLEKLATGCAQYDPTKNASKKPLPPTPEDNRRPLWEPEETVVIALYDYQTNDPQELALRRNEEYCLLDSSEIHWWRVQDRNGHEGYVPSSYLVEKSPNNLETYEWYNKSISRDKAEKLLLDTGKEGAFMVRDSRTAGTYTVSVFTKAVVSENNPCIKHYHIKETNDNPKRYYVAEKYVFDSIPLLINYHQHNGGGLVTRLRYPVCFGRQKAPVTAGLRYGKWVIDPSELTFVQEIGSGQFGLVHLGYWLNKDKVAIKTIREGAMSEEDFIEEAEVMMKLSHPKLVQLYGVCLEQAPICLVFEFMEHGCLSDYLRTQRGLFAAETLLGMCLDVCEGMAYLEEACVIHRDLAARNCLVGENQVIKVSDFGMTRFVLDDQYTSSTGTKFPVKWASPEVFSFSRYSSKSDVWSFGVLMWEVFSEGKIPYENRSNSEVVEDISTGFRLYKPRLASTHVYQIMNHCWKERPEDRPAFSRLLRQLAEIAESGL
Nature of the assay: Inhibition of a panel of kinases, in vitro HotSpot kinase assay: ITK. Particulars: Table 15, C compounds; 1 μM ATP. How it is done:
as §1

Another assay deals with T3, TXK (Homo sapiens, UniProt P42681).
T3 sequence (P42681 1-527): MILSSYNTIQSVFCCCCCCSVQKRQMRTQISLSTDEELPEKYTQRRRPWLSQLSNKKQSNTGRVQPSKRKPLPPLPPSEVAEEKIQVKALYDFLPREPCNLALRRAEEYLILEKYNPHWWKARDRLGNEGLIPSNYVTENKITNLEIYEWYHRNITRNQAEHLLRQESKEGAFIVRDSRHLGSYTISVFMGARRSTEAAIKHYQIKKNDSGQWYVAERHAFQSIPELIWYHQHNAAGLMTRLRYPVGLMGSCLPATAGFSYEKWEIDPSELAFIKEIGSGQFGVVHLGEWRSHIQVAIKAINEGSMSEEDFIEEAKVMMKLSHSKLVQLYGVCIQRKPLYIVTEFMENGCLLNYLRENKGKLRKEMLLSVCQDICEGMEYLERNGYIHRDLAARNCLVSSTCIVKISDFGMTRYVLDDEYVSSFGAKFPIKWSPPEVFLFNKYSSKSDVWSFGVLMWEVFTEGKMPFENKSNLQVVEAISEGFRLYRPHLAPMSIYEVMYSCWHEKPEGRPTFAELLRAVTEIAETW
Nature of the assay: Inhibition of a panel of kinases, in vitro HotSpot kinase assay: TXK. Particulars: Table 15, C compounds; 1 μM ATP. The protocol:
as §1

A further assay has as its target T4, BTK-WT (Homo sapiens, UniProt Q06187).
T4 construct: purified from insect cells as a full-length construct containing an N-terminal 6X-His tag; His6 (N); made in house; host or cells: insect cells (baculovirus Sf21 in Method B)
Nature of the assay: Btk in vitro inhibitory activity (one of Method A TR-FRET, Method B electrophoretic mobility shift, Method C radiometric filter binding). Particulars: Table 15, C compounds; read-out: IC50 BTK-WT. Background: Mobility shift assays separate free from complexed probe on a gel.

For another assay, the target named is EGFR (Homo sapiens, UniProt P00533). Nature of the assay: Inhibition of a panel of kinases, in vitro HotSpot kinase assay: EGFR. Particulars: Table 15, C compounds; 1 μM ATP. The protocol:
as §1

What is called IC50 is the concentration needed to halve the response being measured.

Chain of EGFR (P00533 25-1210): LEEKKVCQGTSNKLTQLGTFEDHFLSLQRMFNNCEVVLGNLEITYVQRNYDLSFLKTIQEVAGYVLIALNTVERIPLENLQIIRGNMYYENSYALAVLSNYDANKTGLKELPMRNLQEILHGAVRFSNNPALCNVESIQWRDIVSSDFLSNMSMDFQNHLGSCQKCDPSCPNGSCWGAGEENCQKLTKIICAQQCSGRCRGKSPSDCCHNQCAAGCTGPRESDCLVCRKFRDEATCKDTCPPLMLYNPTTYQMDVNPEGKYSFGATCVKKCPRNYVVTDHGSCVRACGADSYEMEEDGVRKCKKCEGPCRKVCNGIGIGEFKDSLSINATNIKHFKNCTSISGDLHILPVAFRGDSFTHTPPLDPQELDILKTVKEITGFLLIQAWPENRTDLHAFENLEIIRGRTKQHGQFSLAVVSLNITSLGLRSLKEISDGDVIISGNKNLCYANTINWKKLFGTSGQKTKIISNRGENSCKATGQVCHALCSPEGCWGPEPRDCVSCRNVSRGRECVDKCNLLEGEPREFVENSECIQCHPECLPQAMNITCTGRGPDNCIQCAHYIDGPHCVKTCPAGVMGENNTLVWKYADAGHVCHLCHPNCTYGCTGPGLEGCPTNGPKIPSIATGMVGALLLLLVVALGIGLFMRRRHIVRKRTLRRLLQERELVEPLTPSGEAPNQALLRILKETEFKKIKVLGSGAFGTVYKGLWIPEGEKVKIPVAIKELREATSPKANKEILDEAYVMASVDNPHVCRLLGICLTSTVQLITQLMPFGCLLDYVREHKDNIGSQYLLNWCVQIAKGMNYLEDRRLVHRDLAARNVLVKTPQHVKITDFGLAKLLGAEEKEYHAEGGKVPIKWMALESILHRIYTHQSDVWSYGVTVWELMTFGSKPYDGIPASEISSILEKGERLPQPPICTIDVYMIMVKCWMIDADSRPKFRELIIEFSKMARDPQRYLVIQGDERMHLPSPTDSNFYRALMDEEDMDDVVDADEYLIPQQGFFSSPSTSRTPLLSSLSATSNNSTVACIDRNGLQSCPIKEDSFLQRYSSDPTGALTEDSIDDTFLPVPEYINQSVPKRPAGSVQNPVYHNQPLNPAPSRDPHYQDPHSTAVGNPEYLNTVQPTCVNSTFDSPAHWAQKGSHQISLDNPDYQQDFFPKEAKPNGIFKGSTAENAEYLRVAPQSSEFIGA
T4 sequence (Q06187 whole entry): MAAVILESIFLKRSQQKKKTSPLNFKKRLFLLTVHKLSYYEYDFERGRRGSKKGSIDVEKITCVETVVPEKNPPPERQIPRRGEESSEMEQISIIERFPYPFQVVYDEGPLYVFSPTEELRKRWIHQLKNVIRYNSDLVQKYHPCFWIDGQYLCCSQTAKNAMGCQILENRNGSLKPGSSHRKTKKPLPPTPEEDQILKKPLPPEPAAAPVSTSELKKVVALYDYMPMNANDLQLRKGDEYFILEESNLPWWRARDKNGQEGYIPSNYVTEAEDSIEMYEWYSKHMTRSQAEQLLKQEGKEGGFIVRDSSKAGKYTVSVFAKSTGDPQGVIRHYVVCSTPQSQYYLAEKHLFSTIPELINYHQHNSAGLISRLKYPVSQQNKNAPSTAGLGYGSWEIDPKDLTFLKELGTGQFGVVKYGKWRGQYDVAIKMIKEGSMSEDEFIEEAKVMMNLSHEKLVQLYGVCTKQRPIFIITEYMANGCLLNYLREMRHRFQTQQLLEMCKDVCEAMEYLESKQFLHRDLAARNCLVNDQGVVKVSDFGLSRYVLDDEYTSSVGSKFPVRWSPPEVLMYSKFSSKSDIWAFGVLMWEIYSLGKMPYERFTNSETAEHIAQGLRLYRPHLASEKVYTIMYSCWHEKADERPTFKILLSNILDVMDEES

As for `C=CC(=O)N1CCC[C@@H](Nc2nnc(C(N)=O)c(Nc3ccc(-c4nn[nH]n4)cc3)n2)C1` [Example C-78, (R)-5-(4-(2H-tetrazol-5-yl)phenylamino)-3-(1-acryloylpiperidin-3-ylamino)-1,2,4-triazine-6-carboxamide], the half-inhibitory concentration (IC50) was at most 10 nM against TEC; 10 to 100 nM on ITK; at most 10 nM at TXK; at most 10 nM on BTK-WT; at most 10 nM at EGFR.

Consider `C=CC(=O)N1CCC[C@@H](Nc2nnc(C(N)=O)c(Nc3ccc(N4CCOCC4=O)cc3)n2)C1` [Example C-76, (R)-3-(1-acryloylpiperidin-3-ylamino)-5-(4-(3-oxomorpholino)phenyl-amino)-1,2,4-triazine-6-carboxamide], for which the IC50 against TEC was at most 10 nM; at ITK it was at most 10 nM; against TXK it was at most 10 nM; at BTK-WT, at most 10 nM; against EGFR it was 10 to 100 nM.

For `C=CC(=O)N1CCC[C@@H](Nc2nnc(C(N)=O)c(Nc3cccc(-c4ncccn4)c3)n2)C1` [Example C-71, (R)-3-(1-acryloylpiperidin-3-ylamino)-5-(3-(pyrimidin-2-yl)phenylamino)-1,2,4-triazine-6-carboxamide], the half-inhibitory concentration (IC50) at TEC was at most 10 nM; against ITK, 10 to 100 nM; at TXK, at most 10 nM; at BTK-WT, at most 10 nM; on EGFR, 10 to 100 nM.

`C=CC(=O)N1CCC[C@@H](Nc2nnc(C(N)=O)c(Nc3ccc(-c4ncco4)cc3)n2)C1` [Example C-51, (R)-3-(1-acryloylpiperidin-3-ylamino)-5-(4-(oxazol-2-yl)phenylamino)-1,2,4-triazine-6-carboxamide]: the IC50 on TEC is at most 10 nM; against ITK it was 10 to 100 nM; against TXK, at most 10 nM; on BTK-WT it was at most 10 nM; on EGFR, at most 10 nM.

On to `C=CC(=O)N1CCC[C@@H](Nc2nnc(C(N)=O)c(Nc3ccc4ncsc4c3)n2)C1` [Example C-63, (R)-3-(1-acryloylpiperidin-3-ylamino)-5-(benzo[d]thiazol-6-ylamino)-1,2,4-triazine-6-carboxamide], for which the 50% inhibitory concentration (IC50) at TEC, at ITK, against TXK and at BTK-WT was at most 10 nM in each case.

Consider `C=CC(=O)N1CCC[C@@H](Nc2nnc(C(N)=O)c(Nc3cnc4ccccc4c3)n2)C1` [Example C-70, (R)-3-(1-acryloylpiperidin-3-ylamino)-5-(quinolin-3-ylamino)-1,2,4-triazine-6-carboxamide], for which the IC50 is at most 10 nM against TEC, 10 to 100 nM at ITK, at most 10 nM against TXK and at most 10 nM on BTK-WT.

On to `C=CC(=O)N1CCC[C@@H](Nc2nnc(C(N)=O)c(Nc3ccc4ncccc4c3)n2)C1` [Example C-82, (R)-3-(1-acryloylpiperidin-3-ylamino)-5-(quinolin-6-ylamino)-1,2,4-triazine-6-carboxamide], for which the half-maximal inhibitory concentration (IC50) against TEC, on ITK, at TXK and on BTK-WT was at most 10 nM throughout.

Turning to `C=CC(=O)N1CCC[C@@H](Nc2nnc(C(N)=O)c(Nc3cccc(-c4ncco4)c3)n2)C1` [Example C-79, (R)-3-(1-acryloylpiperidin-3-ylamino)-5-(3-(oxazol-2-yl)phenylamino)-1,2,4-triazine-6-carboxamide], the half-maximal inhibitory concentration (IC50) at TEC is at most 10 nM; at ITK, 10 to 100 nM; against TXK, at most 10 nM; at BTK-WT, at most 10 nM.

As to `C=CC(=O)N1CCC[C@@H](Nc2nnc(C(N)=O)c(Nc3ccc(Cn4cncn4)cc3)n2)C1` [Example C-64, (R)-5-(4-((1H-1,2,4-triazol-1-yl)methyl)phenyl-amino)-3-(1-acryloylpiperidin-3-ylamino)-1,2,4-triazine-6-carboxamide], the 50% inhibitory concentration (IC50) at TEC, against ITK, against TXK and on BTK-WT was at most 10 nM each time.

As to `C=CC(=O)N1CCC[C@@H](Nc2nnc(C(N)=O)c(Nc3ccc(C)cc3)n2)C1` [Example C-54, (R)-3-(1-acryloylpiperidin-3-ylamino)-5-(p-tolylamino)-1,2,4-triazine-6-carboxamide], the concentration for half-maximal inhibition (IC50) was at most 10 nM on TEC, 10 to 100 nM on ITK, at most 10 nM on TXK and at most 10 nM on BTK-WT.

Consider `C=CC(=O)N1CC[C@@H](N(C)c2cnc(C(N)=O)c(Nc3ccc(C4(C)CCN(C5CC5)CC4)cc3)n2)C1` [Example C-65, (R)-5-((1-acryloylpyrrolidin-3-yl)(methyl)amino)-3-(4-(1-cyclopropyl-4-methylpiperidin-4-yl)phenylamino) pyrazine-2-carboxamide], for which the half-maximal inhibitory concentration (IC50) against TEC, on ITK, against TXK and at BTK-WT was at most 10 nM each time.

Consider `C=CC(=O)N1CCC[C@@H](Nc2nnc(C(N)=O)c(Nc3ccc(C(C)(C)C#N)cc3)n2)C1` [Example C-61, (R)-3-(1-acryloylpiperidin-3-ylamino)-5-(4-(2-cyanopropan-2-yl)phenylamino)-1,2,4-triazine-6-carboxamide], for which the IC50 on TEC, on ITK, on TXK and at BTK-WT was at most 10 nM each time.

For `C=CC(=O)N1CC[C@@H](N(C)c2cnc(C(N)=O)c(Nc3ccc(C4(C)CCN(C5CCCC5)CC4)cc3)n2)C1` [Example C-67, (R)-5-((1-acryloylpyrrolidin-3-yl)(methyl)amino)-3-(4-(1-cyclopentyl-4-methylpiperidin-4-yl)phenylamino)pyrazine-2-carboxamide], the IC50 was at most 10 nM on TEC, at most 10 nM on ITK, above 10000 nM at TXK and at most 10 nM on BTK-WT.

In the case of `C=CC(=O)N1CCC[C@@H](Nc2nnc(C(N)=O)c(Nc3ccc4c(cnn4CC)c3)n2)C1` [Example C-80, (R)-3-(1-acryloylpiperidin-3-ylamino)-5-(1-ethyl-1H-indazol-5-ylamino)-1,2,4-triazine-6-carboxamide], the IC50 against TEC, on ITK, at TXK and at BTK-WT was at most 10 nM each time.

In the case of `C=CC(=O)N1CCC[C@@H](Nc2nnc(C(N)=O)c(Nc3ccc(C(C)C)c(C)c3)n2)C1` [Example C-53, (R)-3-(1-acryloylpiperidin-3-ylamino)-5-(4-isopropyl-3-methylphenylamino)-1,2,4-triazine-6-carboxamide], the IC50 on TEC is at most 10 nM; on ITK, 10 to 100 nM; on TXK, at most 10 nM; on BTK-WT, at most 10 nM.

`C=CC(=O)N1CCC[C@@H](Nc2nnc(C(N)=O)c(Nc3cncc(F)c3)n2)C1` [Example C-69, (R)-3-(1-acryloylpiperidin-3-ylamino)-5-(5-fluoropyridin-3-ylamino)-1,2,4-triazine-6-carboxamide]: the IC50 was at most 10 nM against TEC, 100 to 1000 nM on ITK, at most 10 nM at TXK and at most 10 nM at BTK-WT.
